Test results from PubChem BioAssay (NCI).
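Following 48 hours of exposure in 96-well plates, responses at five concentrations were used to interpolate endpoints linearly. TGI is the concentration that stops growth completely.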

Legend:
Test in all cases: NCI tumour cell line growth inhibition, 48 h
U251 CNS = test system: U251 CNS
CCRF-CEM leukemia = test system: CCRF-CEM leukemia
SF-295 CNS = test system: SF-295 CNS
SW-620 colon = test system: SW-620 colon
SR leukemia = test system: SR leukemia
PC-3 prostate = test system: PC-3 prostate
BT-549 breast = test system: BT-549 breast
OVCAR-3 ovarian = test system: OVCAR-3 ovarian
HL-60(TB) leukemia = test system: HL-60(TB) leukemia
HS 578T breast = test system: HS 578T breast
MDA-MB-231 breast = test system: MDA-MB-231 breast
SK-MEL-28 melanoma = test system: SK-MEL-28 melanoma
LOX IMVI melanoma = test system: LOX IMVI melanoma
T-47D breast = test system: T-47D breast
K-562 leukemia = test system: K-562 leukemia
CAKI-1 renal = test system: CAKI-1 renal
HCT-15 colon = test system: HCT-15 colon
HOP-62 NSCLC = test system: HOP-62 NSCLC
RPMI-8226 leukemia = test system: RPMI-8226 leukemia
MDA-N = test system: MDA-N
COLO 205 colon = test system: COLO 205 colon
OVCAR-8 ovarian = test system: OVCAR-8 ovarian
HCC-2998 colon = test system: HCC-2998 colon
A498 renal = test system: A498 renal
UO-31 renal = test system: UO-31 renal
HT29 colon = test system: HT29 colon
SNB-19 CNS = test system: SNB-19 CNS
M14 melanoma = test system: M14 melanoma
SN12C renal = test system: SN12C renal
NCI-H522 lung = test system: NCI-H522 lung
SNB-75 CNS = test system: SNB-75 CNS
A549 NSCLC = test system: A549 NSCLC
786-0 renal = test system: 786-0 renal
NCI-H226 lung = test system: NCI-H226 lung
NCI-H460 lung = test system: NCI-H460 lung
KM12 colon = test system: KM12 colon
HCT-116 colon = test system: HCT-116 colon
OVCAR-4 ovarian = test system: OVCAR-4 ovarian
DU-145 prostate = test system: DU-145 prostate
SK-MEL-2 melanoma = test system: SK-MEL-2 melanoma
ACHN renal = test system: ACHN renal
MOLT-4 leukemia = test system: MOLT-4 leukemia
SF-268 CNS = test system: SF-268 CNS
MALME-3M melanoma = test system: MALME-3M melanoma
RXF 393 renal = test system: RXF 393 renal
IGROV1 ovarian = test system: IGROV1 ovarian
MCF7 breast = test system: MCF7 breast
NCI-H23 lung = test system: NCI-H23 lung
UACC-62 melanoma = test system: UACC-62 melanoma
OVCAR-5 ovarian = test system: OVCAR-5 ovarian
SF-539 CNS = test system: SF-539 CNS
UACC-257 melanoma = test system: UACC-257 melanoma
TK-10 renal = test system: TK-10 renal
NCI/ADR-RES ovarian = test system: NCI/ADR-RES ovarian
EKVX NSCLC = test system: EKVX NSCLC
SK-MEL-5 melanoma = test system: SK-MEL-5 melanoma
SK-OV-3 ovarian = test system: SK-OV-3 ovarian
MDA-MB-435 = test system: MDA-MB-435
HOP-92 NSCLC = test system: HOP-92 NSCLC

For `Cc1ccc2c(c1)C(C1Cc3cccc(C)c3C1=O)OC2=O` (centres undefined), the TGI (U251 CNS) was > 100 µM, the TGI (CCRF-CEM leukemia) was > 100 µM and the TGI (SF-295 CNS) was > 100 µM. For the same compound, the TGI (SW-620 colon) was > 100 µM, the TGI (SR leukemia) was > 100 µM and the TGI (PC-3 prostate) was > 100 µM. The TGI (BT-549 breast) was > 100 µM, the TGI (OVCAR-3 ovarian) was > 100 µM and the TGI (HL-60(TB) leukemia) was > 100 µM. The TGI (HS 578T breast) was > 100 µM, the TGI (MDA-MB-231 breast) was > 100 µM and the TGI (SK-MEL-28 melanoma) was > 100 µM. The TGI (LOX IMVI melanoma) was > 100 µM, the TGI (T-47D breast) was > 100 µM and the TGI (K-562 leukemia) was > 100 µM. The TGI (CAKI-1 renal) was > 100 µM, the TGI (HCT-15 colon) was > 100 µM and the TGI (HOP-62 NSCLC) was > 100 µM. The TGI (RPMI-8226 leukemia) was 88.3 µM, the TGI (MDA-N) was > 100 µM and the TGI (COLO 205 colon) was > 100 µM. For the same compound, the TGI (OVCAR-8 ovarian) was > 100 µM, the TGI (HCC-2998 colon) was > 100 µM and the TGI (A498 renal) was > 100 µM. For the same compound, the TGI (UO-31 renal) was > 100 µM, the TGI (HT29 colon) was > 100 µM and the TGI (SNB-19 CNS) was > 100 µM. For the same compound, the TGI (M14 melanoma) was > 100 µM, the TGI (SN12C renal) was > 100 µM and the TGI (NCI-H522 lung) was > 100 µM. The TGI (SNB-75 CNS) was > 100 µM, the TGI (A549 NSCLC) was > 100 µM and the TGI (786-0 renal) was > 100 µM. The TGI (NCI-H226 lung) was > 100 µM, the TGI (NCI-H460 lung) was > 100 µM and the TGI (KM12 colon) was > 100 µM. For the same compound, the TGI (HCT-116 colon) was > 100 µM, the TGI (OVCAR-4 ovarian) was > 100 µM and the TGI (DU-145 prostate) was > 100 µM. The TGI (SK-MEL-2 melanoma) was > 100 µM, the TGI (ACHN renal) was > 100 µM and the TGI (MOLT-4 leukemia) was > 100 µM. For the same compound, the TGI (SF-268 CNS) was > 100 µM, the TGI (MALME-3M melanoma) was > 100 µM and the TGI (RXF 393 renal) was > 100 µM. For the same compound, the TGI (IGROV1 ovarian) was > 100 µM, the TGI (MCF7 breast) was > 100 µM and the TGI (NCI-H23 lung) was > 100 µM. The TGI (UACC-62 melanoma) was > 100 µM, the TGI (OVCAR-5 ovarian) was > 100 µM and the TGI (SF-539 CNS) was > 100 µM. For the same compound, the TGI (UACC-257 melanoma) was > 100 µM, the TGI (TK-10 renal) was > 100 µM and the TGI (NCI/ADR-RES ovarian) was > 100 µM. For the same compound, the TGI (EKVX NSCLC) was > 100 µM, the TGI (SK-MEL-5 melanoma) was > 100 µM and the TGI (SK-OV-3 ovarian) was > 100 µM. The TGI (MDA-MB-435) was > 100 µM and the TGI (HOP-92 NSCLC) was > 100 µM.
With `CCC1c2[nH]c3ccccc3c2C[C@H]2C(=O)N3CCC[C@H]3C(=O)N12` (some centres undefined) the TGI (U251 CNS) was > 100 µM, the TGI (SF-295 CNS) was > 100 µM and the TGI (SW-620 colon) was > 100 µM. For the same compound, the TGI (SR leukemia) was > 100 µM, the TGI (PC-3 prostate) was > 100 µM and the TGI (BT-549 breast) was > 100 µM. The TGI (OVCAR-3 ovarian) was > 100 µM, the TGI (HL-60(TB) leukemia) was > 100 µM and the TGI (HS 578T breast) was > 100 µM. For the same compound, the TGI (MDA-MB-231 breast) was > 100 µM, the TGI (SK-MEL-28 melanoma) was > 100 µM and the TGI (LOX IMVI melanoma) was > 100 µM. The TGI (T-47D breast) was > 100 µM, the TGI (K-562 leukemia) was > 100 µM and the TGI (CAKI-1 renal) was > 100 µM. For the same compound, the TGI (HCT-15 colon) was > 100 µM, the TGI (HOP-62 NSCLC) was > 100 µM and the TGI (RPMI-8226 leukemia) was > 100 µM. For the same compound, the TGI (MDA-N) was > 100 µM, the TGI (COLO 205 colon) was > 100 µM and the TGI (OVCAR-8 ovarian) was > 100 µM. For the same compound, the TGI (HCC-2998 colon) was > 100 µM, the TGI (A498 renal) was > 100 µM and the TGI (UO-31 renal) was > 100 µM. The TGI (HT29 colon) was > 100 µM, the TGI (SNB-19 CNS) was > 100 µM and the TGI (M14 melanoma) was > 100 µM. The TGI (SN12C renal) was > 100 µM, the TGI (NCI-H522 lung) was > 100 µM and the TGI (A549 NSCLC) was > 100 µM. For the same compound, the TGI (786-0 renal) was > 100 µM, the TGI (NCI-H226 lung) was > 100 µM and the TGI (KM12 colon) was > 100 µM. The TGI (HCT-116 colon) was > 100 µM, the TGI (OVCAR-4 ovarian) was > 100 µM and the TGI (DU-145 prostate) was > 100 µM. The TGI (SK-MEL-2 melanoma) was > 100 µM, the TGI (ACHN renal) was > 100 µM and the TGI (MOLT-4 leukemia) was > 100 µM. The TGI (SF-268 CNS) was > 100 µM, the TGI (MALME-3M melanoma) was > 100 µM and the TGI (RXF 393 renal) was > 100 µM. The TGI (IGROV1 ovarian) was > 100 µM, the TGI (MCF7 breast) was > 100 µM and the TGI (NCI-H23 lung) was > 100 µM. For the same compound, the TGI (UACC-62 melanoma) was > 100 µM, the TGI (OVCAR-5 ovarian) was > 100 µM and the TGI (UACC-257 melanoma) was > 100 µM. The TGI (TK-10 renal) was > 100 µM, the TGI (NCI/ADR-RES ovarian) was > 100 µM and the TGI (EKVX NSCLC) was > 100 µM. For the same compound, the TGI (SK-MEL-5 melanoma) was > 100 µM, the TGI (SK-OV-3 ovarian) was > 100 µM and the TGI (MDA-MB-435) was > 100 µM. For the same compound, the TGI (HOP-92 NSCLC) was > 100 µM.
